Results taken from article PMC11048033, “Dual Anti-Inflammatory and Anticancer Activity of Novel 1,5-Diaryl Pyrazole Derivatives: Molecular Modeling, Synthesis, In Vitro Activity, and Dynamics Study” (Biomedicines, 2024).
One block for each compound: values may come before it.

Tests used:
[1] = target: BSA (bovine albumin serum) (Bos taurus, UniProt P02769); assay: Protein (albumin) denaturation assay; details: maximum inhibition; compounds tested at 50-200 µg/mL, diclofenac 100 µg/mL
Protocol: Mizushima and Kobayashi’s technique was employed for the determination of in vitro anti-inflammatory activity by the protein denaturation method for the synthesized compounds. […] Then, a mixture of 500µL of 1% aqueous solution of BSA (bovine albumin serum) and 1.4 mL of phosphate buffer saline (PBS, pH 7.4) was added to 100 µL of varying concentrations of the synthesized compounds 50, 100, and 200 µg/mL. […] The mixtures are then incubated for 15 min at 37 °C and then heated for 10 min at 60 °C. The absorbance was measured at 660nm (SHIMADZU, UV-1800 Spectrophotometer) upon cooling. […] The entire experiment was done in triplicate, and the average was calculated. % inhibition of protein denaturation was calculated by: % inhibition=Absorbance of Control−Absorbance of Sample/Absorbance of Control×100
The anti-inflammatory capacity of the target compound was evaluated using the protein denaturation assay.

[2] = tested on: A549 (human lung adenocarcinoma) cell line; assay: MTT anticancer assay, A549; assay type: cell-based
Protocol: (§1) The in vitro anticancer activity is determined by counting the viable cells that are stained with a vital dye. The MTT technique is an accurate measure of the activity of live cells using mitochondrial dehydrogenases. The target tumor cells A549 (human lung adenocarcinoma) and HEPG2 (human liver) cell lines are procured from the “National Centre for Cell Science” (NCCS, Pune). The sources of reagents like Trypsin, DMEM, Pen strip, and FBS are procured from Himedia. […] The culture medium was prepared, and the MTT assay was performed as per the general procedure described by Mosmann T. et al., [30] and the % viability of the cells was determined.
(§2) The target compounds tested for in vitro COX-2 were further checked for in vitro anti-cancer activity against A549 (lung cancer) and HepG2 (liver cancer) cell lines using MTT growth inhibition assay. The compounds were tested for cytotoxicity against both the cell lines at concentrations of 6.25, 12.5, 25, 50, and 100 µg/mL. […] Using the graph where % cell viability is plotted versus concentration, the IC50 values are determined with the help of the dose–response regression equation.

[3] = tested on: HEPG2 (human liver) cell line; assay: MTT anticancer assay, HepG2; assay type: cell-based
Protocol: as §1, §2

[4] = target: T1, Human COX-2 (Homo sapiens, UniProt P35354); assay: In vitro COX-2 enzymatic assay (Cayman COX (human) Inhibitor Screening Assay Kit); assay type: biochemical; details: human COX-2
T1 construct: purchased Cayman Chemicals 701230
T1 sequence (P35354 18-604): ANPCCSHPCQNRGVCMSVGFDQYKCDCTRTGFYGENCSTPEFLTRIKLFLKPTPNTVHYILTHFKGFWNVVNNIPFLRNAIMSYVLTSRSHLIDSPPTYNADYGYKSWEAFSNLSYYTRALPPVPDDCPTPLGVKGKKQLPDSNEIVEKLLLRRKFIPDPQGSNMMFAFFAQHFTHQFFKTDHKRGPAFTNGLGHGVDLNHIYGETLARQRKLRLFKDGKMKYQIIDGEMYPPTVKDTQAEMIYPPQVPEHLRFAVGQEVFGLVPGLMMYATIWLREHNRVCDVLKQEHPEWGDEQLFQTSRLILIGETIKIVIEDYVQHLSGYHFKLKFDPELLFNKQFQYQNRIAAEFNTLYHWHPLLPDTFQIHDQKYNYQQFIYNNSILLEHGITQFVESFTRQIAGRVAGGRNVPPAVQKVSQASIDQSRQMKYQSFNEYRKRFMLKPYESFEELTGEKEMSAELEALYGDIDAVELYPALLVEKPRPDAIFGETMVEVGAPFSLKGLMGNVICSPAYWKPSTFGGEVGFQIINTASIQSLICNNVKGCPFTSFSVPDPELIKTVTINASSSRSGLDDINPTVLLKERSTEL
Protocol: The ability of the compounds to inhibit COX -2 (IC50 values, µM) was determined by using a “COX (human) Inhibitor Screening Assay Kit” procured from Cayman Chemicals (catalog number 701230). With a slight modification in the method as defined in the reference, the COX-2 inhibition assay was performed. Using the percent conversion of arachidonic acid (AA) to PGH2, the enzyme activity was calculated. By enzyme immunoassay PGF2α, which is produced from PGH2 by reduction with stannous chloride, is calculated. The test compounds’ stock solutions are prepared by dissolving in a minimum amount of DMSO. Human COX-2 (10 µL) in the presence of 10 µL of heme was suspended in 0.1M Tris-HCl buffer (pH 8.0) which contains 2 mM phenol and 5 mM EDTA. This was added to various concentrations of test compounds and, on incubating the solutions at 37 °C for 5 min, 10 µL of AA solution were added. Later, the COX reaction was stopped by adding 1M HCl (50 µL) after 2 min. The intensity of the yellow color which is produced as the product of the enzymatic reaction is determined spectrophotometrically. The percent inhibition was calculated by comparing the compound treated to different control incubations. […] The determinations are done in triplicate and the IC50 (µM) was determined using the concentration–inhibition response curve.
During the initiation of the inflammatory process, the COX enzyme plays a vital role in the progression of inflammatory response. The inflammatory mediators that arise due to the action of COX lead to the chemoattraction of neutrophils, macrophages, eosinophils, etc. […] This was carried out with the help of a COX (human) inhibitor screening assay kit (Item no. 701230) from Cayman chemicals. […] A test substance concentration was considered to be inhibitive when it inhibited human COX-1 or COX-2 by 50%. The compound’s selectivity was measured by its selectivity index values, derived as IC50 (COX-1)/IC50 (COX-2).

BSA (bovine albumin serum), sequence (P02769 25-607): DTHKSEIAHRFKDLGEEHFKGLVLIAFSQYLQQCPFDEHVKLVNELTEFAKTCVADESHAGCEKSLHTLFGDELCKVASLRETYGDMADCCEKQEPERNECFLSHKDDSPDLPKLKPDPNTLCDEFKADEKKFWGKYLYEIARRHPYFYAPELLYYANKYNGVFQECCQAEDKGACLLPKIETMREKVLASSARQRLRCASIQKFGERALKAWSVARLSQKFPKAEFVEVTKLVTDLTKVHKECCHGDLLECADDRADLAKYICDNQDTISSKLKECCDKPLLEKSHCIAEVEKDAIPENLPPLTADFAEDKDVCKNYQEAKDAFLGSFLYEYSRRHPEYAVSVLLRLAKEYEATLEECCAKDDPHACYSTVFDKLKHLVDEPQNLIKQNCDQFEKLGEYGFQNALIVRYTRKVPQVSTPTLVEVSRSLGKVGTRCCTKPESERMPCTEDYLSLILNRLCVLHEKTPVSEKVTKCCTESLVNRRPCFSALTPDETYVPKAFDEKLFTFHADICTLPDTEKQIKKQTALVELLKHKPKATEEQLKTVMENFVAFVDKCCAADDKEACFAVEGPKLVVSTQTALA

Compound: COc1ccc(-c2cc(C(=O)NN=Cc3cccc(Oc4ccccc4)c3)nn2-c2ccc(S(N)(=O)=O)cc2)cc1 [Compound T1, 4-(5-(4-methoxyphenyl)-3-(2-(3-phenoxybenzylidene) hydrazine-1-carbonyl)-1H-pyrazol-1-yl) benzenesulfonamide]
% inhibition of albumin denaturation [1]: less than 50%

Compound: COc1ccc(-c2cc(C(=O)NN=Cc3ccc(Oc4ccccc4)cc3)nn2-c2ccc(S(N)(=O)=O)cc2)cc1 [Compound T2, 4-(5-(4-methoxyphenyl)-3-(2-(4-phenoxybenzylidene) hydrazine-1-carbonyl)-1H-pyrazol-1-yl) benzenesulfonamide]
anti-cancer activity against A549 cell lines (in words) ([2]; A549): active | % cell viability ([2]; A549, 6.25 µg/ml): 95.63% | % cell viability ([2]; A549, 12.5 µg/ml): 81.83% | % cell viability ([2]; A549, 25 µg/ml): 54.02% | % cell viability ([2]; A549, 50 µg/ml): 33.98% | % cell viability ([2]; A549, 100 µg/ml): 18.25% | concentration at which compound was effective (from % inhibitory values) ([2]; A549 cell lines): 25 µg/mL | IC50 against A549 ([2]; MTT, A549): 31.49 µM | % cell viability ([3]; HepG2, 6.25 µg/ml): 78.42% | % cell viability ([3]; HepG2, 12.5 µg/ml): 77.90% | % cell viability ([3]; HepG2, 25 µg/ml): 71.82% | % cell viability ([3]; HepG2, 50 µg/ml): 67.10% | % cell viability ([3]; HepG2, 100 µg/ml): 64.39% | IC50 against HepG2 ([3]; MTT, HepG2): > 100 µM | IC50 [4]: 12 µM | % inhibition of albumin denaturation [1]: 81.77%

Compound: NS(=O)(=O)c1ccc(-n2nc(C(=O)NN=Cc3cccc(Oc4ccccc4)c3)cc2-c2ccc(Br)cc2)cc1 [Compound T4, 4-(5-(4-bromophenyl)-3-(2-(3-phenoxybenzylidene) hydrazine-1-carbonyl)-1H-pyrazol-1-yl) benzenesulfonamide]
% inhibition of albumin denaturation [1]: less than 50%

IC50 ([2]; Homo sapiens, MTT, A549, read-out: IC50 against A549): > 100 µg/mL | IC50 ([3]; Homo sapiens, MTT, HepG2, read-out: IC50 against HepG2): < 6.25 µg/mL | IC50 [4]: 2.54 µM | % inhibition of albumin denaturation [1]: 61.05%
Compound: Cc1cc(C=NNC(=O)c2cc(-c3ccc(Cl)cc3)n(-c3ccc(S(N)(=O)=O)cc3)n2)cc(C)c1OCc1ccccc1 [Compound T6, 4-(3-(2-(4-(benzyloxy)-3,5-dimethylbenzylidene) hydrazine-1-carbonyl)-5-(4-chlorophenyl)-1H-pyrazol-1-yl)benzenesulfonamide]
viability at 6.25 µg/mL ([2]; Homo sapiens, A549, 6.25 µg/ml): 97.7% | viability at 12.5 µg/mL ([2]; Homo sapiens, A549, 12.5 µg/ml): 87% | viability at 25 µg/mL ([2]; Homo sapiens, A549, 25 µg/ml): 78.8% | viability at 50 µg/mL ([2]; Homo sapiens, A549, 50 µg/ml): 74.6% | viability at 100 µg/mL ([2]; Homo sapiens, A549, 100 µg/ml): 63.4% | anti-cancer activity against HepG2 cell line (in words) ([3]; HepG2): active | viability at 6.25 µg/mL ([3]; Homo sapiens, HepG2, 6.25 µg/ml): 24.1% | viability at 12.5 µg/mL ([3]; Homo sapiens, HepG2, 12.5 µg/ml): 11% | viability at 25 µg/mL ([3]; Homo sapiens, HepG2, 25 µg/ml): 2.99% | viability at 50 µg/mL ([3]; Homo sapiens, HepG2, 50 µg/ml): 2.87% | viability at 100 µg/mL ([3]; Homo sapiens, HepG2, 100 µg/ml): 2.62%

Compound: NS(=O)(=O)c1ccc(-n2nc(C(=O)NN=Cc3ccc(Oc4ccccc4)cc3)cc2-c2ccc(Br)cc2)cc1 [Compound T7, 4-(5-(4-bromophenyl)-3-(2-(4-phenoxybenzylidene) hydrazine-1-carbonyl)-1H-pyrazol-1-yl) benzenesulfonamide]
% inhibition of albumin denaturation [1]: less than 50%

Compound: NS(=O)(=O)c1ccc(-n2nc(C(=O)NN=Cc3ccc(Oc4ccccc4)cc3)cc2-c2ccc(Cl)cc2)cc1 [Compound T8, 4-(5-(4-chlorophenyl)-3-(2-(4-phenoxybenzylidene) hydrazine-1-carbonyl)-1H-pyrazol-1-yl) benzenesulfonamide]
% inhibition of albumin denaturation [1]: less than 50%

Compound: NS(=O)(=O)c1ccc(-n2nc(C(=O)NN=Cc3ccc(Cl)cc3O)cc2-c2ccc(Br)cc2)cc1 [Compound T9, 4-(5-(4-bromophenyl)-3-(2-(4-chloro-2-hydroxybenzylidene) hydrazine-1-carbonyl)-1H-pyrazol-1-yl) benzenesulfonamide]
% cell viability ([2]; A549, 6.25 µg/ml): 91.72% | % cell viability ([2]; A549, 12.5 µg/ml): 84.82% | % cell viability ([2]; A549, 25 µg/ml): 76.64% | % cell viability ([2]; A549, 50 µg/ml): 66.94% | % cell viability ([2]; A549, 100 µg/ml): 54.57% | IC50 against A549 ([2]; MTT, A549): > 100 µM | % cell viability ([3]; HepG2, 6.25 µg/ml): 85.46% | % cell viability ([3]; HepG2, 12.5 µg/ml): 84.90% | % cell viability ([3]; HepG2, 25 µg/ml): 79.30% | % cell viability ([3]; HepG2, 50 µg/ml): 67.24% | % cell viability ([3]; HepG2, 100 µg/ml): 54.42% | IC50 against HepG2 ([3]; MTT, HepG2): > 100 µM | IC50 [4]: 3.5 µM | % inhibition of albumin denaturation [1]: 67.77%

Compound: NS(=O)(=O)c1ccc(-n2nc(C(=O)NN=Cc3ccc(Cl)cc3O)cc2-c2ccccc2)cc1 [Compound T10, 4-(3-(2-(4-chloro-2-hydroxybenzylidene) hydrazine-1-carbonyl)-5-phenyl-1H pyrazol-1-yl) benzenesulfonamide]
% inhibition of albumin denaturation [1]: less than 50%
